From patent US12599676B2, “Cytotoxic imidazo[1,2-A]pyridine compounds and their use in therapy” (MyricX Pharma Limited, priority 2022, dated 2026)

Columns and labels:
[1] = Caco-2 cell permeability assay; type: in vitro ADME; details: human, Caco-2, pH 7.4, basal to apical Papp, pH 7.4, 2.5 h
Summary of the method: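 Caco-2 monolayers grown 10 days were dosed at 2 μM (1% DMSO) on the donor side in HBSS/10 mM HEPES pH 7.4, for both AB and BA directions, then incubated 2.5 h at 37 °C without shaking. Donor and acceptor samples were quantified by LC-MS/MS to give Papp. Wells that failed a Lucifer Yellow integrity check (>1% passage) were excluded.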

[2] = tested on: RKO (human colon carcinoma); assay: Cell cytotoxicity CellTiter-Glo, RKO; type: cell-based
Procedure: Cells were seeded in 96-well microplates and treated with compounds or cisplatin (as a positive control) at 9 increasing concentrations in technical triplicate. […] On day 1, 90 μL of various cell suspensions with the number of cells ranging from 5000-8000 cells/well were seeded into wells of a 96-well plate (Corning). The number of cells to be seeded was previously determined. • 2. All 96-wells plates with cells were placed in an incubator overnight at 37° C. with 5% CO2. • 3. On day 2, cells were observed under a microscope ensuring the cells treated with vehicle control were in good condition. • 4. A dilution series of the test compounds and cisplatin were prepared at 10× the final concentrations required. 10 μL/well of 10× compound solution was added to the corresponding plates. The final volume was 100 μL/well for all the plates. Final DMSO concentration was 0.1%. • 5. On day 5 (after 72 hours of incubation), 50 μL of CTG reagent was added to each well. • 6. Contents were mixed for 5 minutes on an orbital shaker to facilitate cell lysis. • 7. The plate was allowed to incubate at room temperature for 10 minutes to stabilize luminescent signals. […]

Papp B→A at 2.5 h, 2 μM [1]: 9.1 ×10⁻⁶ cm/s
SMILES: Cc1c(CCOc2cc(Cl)ccc2-c2ccc3ncc(CCN)n3c2)c(C(=O)N(C)C)nn1C [Comparator Compound 1, 4-(2-{2-[3-(2-aminoethyl)imidazo[1,2-a]pyridin-6-yl]-5-chlorophenoxy}ethyl)-N,N,1,5-tetramethyl-1H-pyrazole-3-carboxamide, reference compound]
IC50 [2]: 96 nM
